In PubChem BioAssay AID1259407 (Chemical Carcinogenesis Research Information System (CCRIS), 2018):
Active and inactive are the calls of the source. How the calls were made is not given here.

Tested on: CCRIS mutagenicity, Ames/micronucleus/aberration tests
Experiment: CCRIS mutagenicity studies
[1] = Test System: AMES SALMONELLA TYPHIMURIUM, Strain/Indicator: TA100, Metabolic Activation: NONE, Method: PREINCUBATION
[2] = Test System: AMES SALMONELLA TYPHIMURIUM, Strain/Indicator: TA98, Metabolic Activation: NONE, Method: STANDARD PLATE
[3] = Test System: AMES SALMONELLA TYPHIMURIUM, Strain/Indicator: TA100, Metabolic Activation: NONE, Method: STANDARD PLATE
[4] = Test System: AMES SALMONELLA TYPHIMURIUM, Strain/Indicator: TA1535, Metabolic Activation: NONE, Method: STANDARD PLATE

CCC(C)c1ccccc1O (stereo unspecified)
mutagenic call (Test System: AMES SALMONELLA TYPHIMURIUM, Strain/Indicator: TA98, Metabolic Activation: HAMSTER, LIVER, S-9, AROCLOR 1254 (10%), Method: PREINCUBATION): inactive; negative | mutagenic call (Test System: AMES SALMONELLA TYPHIMURIUM, Strain/Indicator: TA98, Metabolic Activation: NONE, Method: PREINCUBATION): inactive; negative | mutagenic call (Test System: AMES SALMONELLA TYPHIMURIUM, Strain/Indicator: TA98, Metabolic Activation: RAT LIVER S-9, PHENOBARBITAL AND BETA-NAPHTHOFLAVONE, Method: PREINCUBATION): inactive; negative | mutagenic call (Test System: AMES SALMONELLA TYPHIMURIUM, Strain/Indicator: TA98, Metabolic Activation: RAT, LIVER, S-9, AROCLOR 1254 (10%), Method: PREINCUBATION): inactive; negative | mutagenic call (Test System: AMES SALMONELLA TYPHIMURIUM, Strain/Indicator: TA100, Metabolic Activation: HAMSTER, LIVER, S-9, AROCLOR 1254 (10%), Method: PREINCUBATION): inactive; negative | mutagenic call [1]: inactive; negative | mutagenic call (Test System: AMES SALMONELLA TYPHIMURIUM, Strain/Indicator: TA100, Metabolic Activation: RAT LIVER S-9, PHENOBARBITAL AND BETA-NAPHTHOFLAVONE, Method: PREINCUBATION): inactive; negative | mutagenic call (Test System: AMES SALMONELLA TYPHIMURIUM, Strain/Indicator: TA100, Metabolic Activation: RAT, LIVER, S-9, AROCLOR 1254 (10%), Method: PREINCUBATION): inactive; negative | mutagenic call (Test System: AMES SALMONELLA TYPHIMURIUM, Strain/Indicator: TA1535, Metabolic Activation: HAMSTER, LIVER, S-9, AROCLOR 1254 (10%), Method: PREINCUBATION): inactive; negative | mutagenic call (Test System: AMES SALMONELLA TYPHIMURIUM, Strain/Indicator: TA1535, Metabolic Activation: NONE, Method: PREINCUBATION): inactive; negative | mutagenic call (Test System: AMES SALMONELLA TYPHIMURIUM, Strain/Indicator: TA1535, Metabolic Activation: RAT LIVER S-9, PHENOBARBITAL AND BETA-NAPHTHOFLAVONE, Method: PREINCUBATION): inactive; negative | mutagenic call (Test System: AMES SALMONELLA TYPHIMURIUM, Strain/Indicator: TA1535, Metabolic Activation: RAT, LIVER, S-9, AROCLOR 1254 (10%), Method: PREINCUBATION): inactive; negative | mutagenic call (Test System: AMES SALMONELLA TYPHIMURIUM, Strain/Indicator: TA1537, Metabolic Activation: HAMSTER, LIVER, S-9, AROCLOR 1254 (10%), Method: PREINCUBATION): inactive; negative | mutagenic call (Test System: AMES SALMONELLA TYPHIMURIUM, Strain/Indicator: TA1537, Metabolic Activation: NONE, Method: PREINCUBATION): inactive; negative | mutagenic call (Test System: AMES SALMONELLA TYPHIMURIUM, Strain/Indicator: TA1537, Metabolic Activation: RAT LIVER S-9, PHENOBARBITAL AND BETA-NAPHTHOFLAVONE, Method: PREINCUBATION): inactive; negative | mutagenic call (Test System: AMES SALMONELLA TYPHIMURIUM, Strain/Indicator: TA1537, Metabolic Activation: RAT, LIVER, S-9, AROCLOR 1254 (10%), Method: PREINCUBATION): inactive; negative | mutagenic call (Test System: E.COLI, Strain/Indicator: WP2UVRA/PKM101, Metabolic Activation: NONE, Method: PREINCUBATION): inactive; negative | mutagenic call (Test System: E.COLI, Strain/Indicator: WP2UVRA/PKM101, Metabolic Activation: RAT LIVER S-9, PHENOBARBITAL AND BETA-NAPHTHOFLAVONE, Method: PREINCUBATION): inactive; negative

CC(=O)Oc1ccc2c(c1)C1(C)OOC1(C)O2 (stereo unspecified)
mutagenic call [1]: active; positive

Cc1occc(=O)c1O
mutagenic call (End Point: IN VIVO MICRONUCLEUS, Test System: BONE MARROW POLYCHROMATIC ERYTHROCYTES, Species: MOUSE, Strain/Sex: DDY/MALE, Route: IP): active; positive | mutagenic call (Test System: AMES SALMONELLA TYPHIMURIUM, Strain/Indicator: TA92, Metabolic Activation: NONE, Method: STANDARD PLATE): inactive; negative | mutagenic call (Test System: AMES SALMONELLA TYPHIMURIUM, Strain/Indicator: TA97, Metabolic Activation: NONE, Method: PREINCUBATION): inactive; negative | mutagenic call (Test System: AMES SALMONELLA TYPHIMURIUM, Strain/Indicator: TA97, Metabolic Activation: RAT, LIVER, S-9, AROCLOR 1254, Method: PREINCUBATION): inactive; negative | mutagenic call [2]: inactive; negative | mutagenic call [3]: inactive; negative | mutagenic call (Test System: AMES SALMONELLA TYPHIMURIUM, Strain/Indicator: TA102, Metabolic Activation: NONE, Method: PREINCUBATION): inactive; negative | mutagenic call (Test System: AMES SALMONELLA TYPHIMURIUM, Strain/Indicator: TA102, Metabolic Activation: RAT, LIVER, S-9, AROCLOR 1254, Method: PREINCUBATION): inactive; negative | mutagenic call (Test System: AMES SALMONELLA TYPHIMURIUM, Strain/Indicator: TA104, Metabolic Activation: NONE, Method: STANDARD PLATE): inactive; negative

O=C(COc1cc(Cl)c(Cl)cc1Cl)N[C@@H](Cc1c[nH]c2ccccc12)C(=O)O
mutagenic call (Test System: AMES SALMONELLA TYPHIMURIUM, Strain/Indicator: TA97, Metabolic Activation: NONE, Method: STANDARD PLATE): inactive; negative | mutagenic call (Test System: AMES SALMONELLA TYPHIMURIUM, Strain/Indicator: TA97, Metabolic Activation: RAT, LIVER, S-9, AROCLOR 1254, Method: STANDARD PLATE): inactive; negative | mutagenic call [2]: inactive; negative | mutagenic call (Test System: AMES SALMONELLA TYPHIMURIUM, Strain/Indicator: TA98, Metabolic Activation: RAT, LIVER, S-9, AROCLOR 1254, Method: STANDARD PLATE): inactive; negative | mutagenic call [3]: inactive; negative | mutagenic call (Test System: AMES SALMONELLA TYPHIMURIUM, Strain/Indicator: TA100, Metabolic Activation: RAT, LIVER, S-9, AROCLOR 1254, Method: STANDARD PLATE): inactive; negative | mutagenic call [4]: inactive; negative | mutagenic call (Test System: AMES SALMONELLA TYPHIMURIUM, Strain/Indicator: TA1535, Metabolic Activation: RAT, LIVER, S-9, AROCLOR 1254, Method: STANDARD PLATE): inactive; negative | mutagenic call (Test System: AMES SALMONELLA TYPHIMURIUM, Strain/Indicator: TA1538, Metabolic Activation: NONE, Method: STANDARD PLATE): inactive; negative | mutagenic call (Test System: AMES SALMONELLA TYPHIMURIUM, Strain/Indicator: TA1538, Metabolic Activation: RAT, LIVER, S-9, AROCLOR 1254, Method: STANDARD PLATE): inactive; negative

C[C@@H]1O[C@@H]1C
mutagenic call (Test System: AMES SALMONELLA TYPHIMURIUM, Strain/Indicator: TA100, Metabolic Activation: NONE, Method: FLASK VAPORIZATION): active; positive | mutagenic call [3]: active; positive | mutagenic call (Test System: AMES SALMONELLA TYPHIMURIUM, Strain/Indicator: TA100, Metabolic Activation: RAT, LIVER, S-9, AROCLOR 1254, Method: FLASK VAPORIZATION): active; positive | mutagenic call (Test System: AMES SALMONELLA TYPHIMURIUM, Strain/Indicator: TA1535, Metabolic Activation: NONE, Method: FLASK VAPORIZATION): active; positive | mutagenic call [4]: active; positive | mutagenic call (Test System: AMES SALMONELLA TYPHIMURIUM, Strain/Indicator: TA1535, Metabolic Activation: RAT, LIVER, S-9, AROCLOR 1254, Method: FLASK VAPORIZATION): active; positive

c1ccc(Cc2ccc(OCC3CO3)cc2)cc1 (stereo unspecified)
mutagenic call [3]: active; positive | mutagenic call [4]: active; positive
